Measurements taken from patent US8927500B2, “Peptidomimetic macrocycles” (Aileron Therapeutics, Inc., priority 2012, dated 2015).
Blank lines part the entries; values can stand above or below the compound they belong to. Where a SMILES comes first, the peptide text is derived from it. Bridges are numbered along the chain shown (N, C = ends). [ ]: non-standard residue; d: D form. Phe(4-COOH) = N[C@@H](Cc1ccc(C(=O)O)cc1)C(=O)O; R8 = C=CCCCCCC[C@@](C)(N)C(=O)O; Cba = N[C@@H](CC1CCC1)C(=O)O; S5 = C=CCCC[C@](C)(N)C(=O)O

What was measured:
[1] = MCF-7 xenograft study, body weight, deaths and tolerability; type: in vivo, mice
Source text: A negative control stapled peptide.

SJSA-1 cells [2] = test: Cell viability assay (MTT), SJSA-1; conditions: in words
[3] = system: MCF-7 breast cancer xenograft; test: MCF-7 breast cancer xenograft study, tumor growth inhibition; conditions: 30 mg/kg 3×/wk iv
Protocol: This formulation was prepared once for the duration of the study.
Each group was assigned to a different treatment regimen.
During the dosing period the mice were weighed and tumors measured 1-2 times per week.

[4] = Circular dichroism (CD) analysis of alpha-helicity; type: physicochemical; conditions: for Molar Ellipticity 50% TFE (222 in 50% TFE): CD buffer with 50% TFE; for Molar Ellipticity 50% TFE (222 in 50% TFE) / Molar Ellipticity Benign (222 in 0% TFE): 222 nm, 4° C.; for Molar Ellipticity Benign (222 in 0% TFE): benign CD buffer pH 2, 0% TFE; for % Helix benign compared to 50% TFE parent (CD): benign buffer; for Molar Ellipticity TFE-Molar Ellipticity Benign: difference 50% TFE minus benign
Protocol: To assay the helicity of peptidomimetic macrocycles, the compounds are dissolved in an aqueous solution (e.g. 50 mM potassium phosphate solution at pH 7, or distilled H2O, to concentrations of 25-50 μM). Circular dichroism (CD) spectra are obtained on a spectropolarimeter (e.g., Jasco J-710) using standard measurement parameters (e.g. temperature, 20° C.; wavelength, 190-260 nm; step resolution, 0.5 nm; speed, 20 nm/sec; accumulations, 10; response, 1 sec; bandwidth, 1 nm; path length, 0.1 cm). […] A Peltier temperature controller was used to maintain temperature control of the optical cell. Results are expressed as mean molar ellipticity [0] […] Peptide concentrations were determined by amino acid analysis. Stock solutions of peptides were prepared in benign CD buffer (20 mM phosphoric acid, pH 2). The stocks were used to prepare peptide solutions of 0.05 mg/ml in either benign CD buffer or CD buffer with 50% trifluoroethanol (TFE) for analyses in a 10 mm pathlength cell. […] The average of six scans was reported.

MDM2 = MDM2 (Homo sapiens, UniProt Q00987); test: Competitive fluorescence polarization assay for MDM2; type: binding; conditions: competitive FP assay, MDM2; for IC50: read-out: IC50 (MDM2); for Ki: read-out: Ki (MDM2)
Chain of MDM2 (Q00987 1-125): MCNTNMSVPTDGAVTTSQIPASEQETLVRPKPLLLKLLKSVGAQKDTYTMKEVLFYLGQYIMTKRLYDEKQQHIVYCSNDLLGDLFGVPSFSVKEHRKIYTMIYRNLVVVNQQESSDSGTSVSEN

MDMX = target: T1, MDMX (Homo sapiens, UniProt O15151); test: Competitive fluorescence polarization assay for MDMX; type: binding; conditions: competitive FP assay; for IC50: read-out: IC50 (MDMX); for Ki: read-out: Ki (MDMX)
T1 sequence (O15151 1-125): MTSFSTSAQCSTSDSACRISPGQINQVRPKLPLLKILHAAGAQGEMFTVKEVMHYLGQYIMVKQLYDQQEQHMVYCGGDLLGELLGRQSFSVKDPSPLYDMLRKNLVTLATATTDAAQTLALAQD

Caspase 3 = Caspase 3 detection assay in SJSA1 cells; type: cell-based; conditions: 48 h, Caspase 3 activation over DMSO-treated cells; for caspase 0.3 uM: 0.3 uM peptide; for caspase 1 uM: 1 uM peptide; for caspase 3 uM: 3 uM peptide; for caspase 10 uM: 10 uM peptide; for caspase 30 uM: 30 uM peptide
SJSA-1 cells [5] = test: Cell lysis by peptidomimetic macrocycles (LDH release); type: cell-based; conditions: 1 h at 37C

Compound: CC[C@H](C)[C@H](NC(=O)[C@H](C)NC(=O)[C@H](C)NC(=O)[C@]1(C)CCC/C=C/CCCCCC[C@@](C)(NC(=O)[C@H](Cc2ccccc2)NC(=O)[C@@H](NC(=O)[C@H](CC(C)C)NC(C)=O)[C@@H](C)O)C(=O)N[C@@H](CCC(=O)O)C(=O)N[C@@H](Cc2ccc(C(=O)O)cc2)C(=O)N[C@@H](Cc2c[nH]c3ccccc23)C(=O)N[C@@H](C)C(=O)N[C@@H](CCC(N)=O)C(=O)N[C@@H](CC2CCC2)C(=O)N1)C(=O)N[C@H](C)C(N)=O [SP249, Ac-L T F $er8 E F4coohWAQCba $e AA-I-a-NH2] (Ac-LTF[R8]E[Phe(4-COOH)]WAQ[Cba][S5]AAI[dA]-NH2; staple (E) 4-11)
- mice died during treatment ([1]; […] 3×/wk iv, 10 mice per group): 4

Compound: CC(=O)N[C@@H](CC(C)C)C(=O)N[C@H](C(=O)N[C@@H](C)C(=O)N[C@]1(C)CCCCCCC=CCCC[C@@](C)(C(=O)N[C@@H](CO)C(=O)N[C@@H](C)C(=O)N[C@@H](C)C(N)=O)NC(=O)[C@H](CC2CCC2)NC(=O)[C@H](CCC(N)=O)NC(=O)[C@H](C)NC(=O)[C@H](Cc2c[nH]c3ccccc23)NC(=O)[C@H](Cc2ccc(O)cc2)NC(=O)[C@H](CCC(=O)O)NC1=O)[C@@H](C)O [SP252]
- % BW Change ([1]; 30 mg/kg 3×/wk iv): +3.3%
- No. with ≧10% BW Loss ([1]; 30 mg/kg 3×/wk iv): 0/10
- No. with ≧20% BW Loss or death ([1]; 30 mg/kg 3×/wk iv): 0/10
- tolerability of dosing regimen ([1]; 30 mg/kg 3×/wk iv, in words): well-tolerated
- activity in the SJSA-1 in vitro viability assay (SJSA-1 cells [2]): no activity
- activity in in vitro assays (SJSA-1 cells [2]; in vitro assays not specified): no appreciable activity
- TGI by Day 32 [3]: 88%

Compound: CC[C@H](C)[C@H](NC(=O)[C@H](C)NC(=O)[C@H](C)NC(=O)[C@]1(C)CCC/C=C/CCCCCC[C@@](C)(NC(=O)[C@H](Cc2ccccc2)NC(=O)[C@@H](NC(=O)[C@H](CC(C)C)NC(C)=O)[C@@H](C)O)C(=O)N[C@@H](C)C(=O)N[C@@H](Cc2ccc(O)cc2)C(=O)N[C@@H](Cc2c[nH]c3ccccc23)C(=O)N[C@@H](C)C(=O)N[C@@H](CCC(N)=O)C(=O)N[C@@H](CC(C)C)C(=O)N1)C(=O)N[C@H](C)C(N)=O [compound 71]
- % Helix 50% TFE compared to 50% TFE parent (CD) [4]: 123.7%
- Molar Ellipticity 50% TFE (222 in 50% TFE) [4]: −17957 deg cm2 dmol-1
- Molar Ellipticity Benign (222 in 0% TFE) [4]: −121.2 deg cm2 dmol-1
- % Helix benign compared to 50% TFE parent (CD) [4]: 0.8%
- Molar Ellipticity TFE-Molar Ellipticity Benign [4]: −17835.9 deg cm2 dmol-1
- IC50 (MDM2): 10 to 100 nM
- Ki (MDM2): < 10 nM
- IC50 (MDMX): 100 to 1000 nM
- Ki (MDMX): 10 to 100 nM
- caspase 0.3 uM (Caspase 3): 0.95
- caspase 1 uM (Caspase 3): 1.02
- caspase 3 uM (Caspase 3): 3.68
- caspase 30 uM (Caspase 3): 23.52
- 6.25 uM % Lysed cells (1 h LDH) (SJSA-1 cells [5]): 0%
- 25 uM % Lysed cells (1 h LDH) (SJSA-1 cells [5]): 0%
- 50 uM % Lysed cells (1 h LDH) (SJSA-1 cells [5]): 0%

The next lines start with results.

- % Helix 50% TFE compared to 50% TFE parent (CD) [4]: 137.3%
- Molar Ellipticity 50% TFE (222 in 50% TFE) [4]: −19921.4 deg cm2 dmol-1
- Molar Ellipticity Benign (222 in 0% TFE) [4]: 124 deg cm2 dmol-1
- % Helix benign compared to 50% TFE parent (CD) [4]: −0.9%
- Molar Ellipticity TFE-Molar Ellipticity Benign [4]: −20045.4 deg cm2 dmol-1
- IC50 (MDM2): 10 to 100 nM
- Ki (MDM2): < 10 nM
- IC50 (MDMX): 10 to 100 nM
- Ki (MDMX): 10 to 100 nM
Compound: CC(=O)N[C@@H](CC(C)C)C(=O)N[C@H](C(=O)N[C@@H](Cc1ccccc1)C(=O)N[C@]1(C)CCCCCCC=CCCC[C@@](C)(C(=O)N[C@@H](CO)C(=O)N[C@@H](C)C(=O)N[C@@H](Cc2ccccc2)C(N)=O)NC(=O)[C@H](CC(C)C)NC(=O)[C@H](CCC(N)=O)NC(=O)[C@H](C)NC(=O)[C@H](Cc2c[nH]c3ccccc23)NC(=O)[C@H](Cc2ccc(O)cc2)NC(=O)[C@H](C)NC1=O)[C@@H](C)O [compound 7] (Ac-LTF[R8]AYWAQL[S5]SAF-NH2; staple 4-11)
- caspase 0.3 uM (Caspase 3): 0.93
- caspase 1 uM (Caspase 3): 1.4
- caspase 3 uM (Caspase 3): 5.08
- caspase 10 uM (Caspase 3): 21.7
- caspase 30 uM (Caspase 3): 23.96
- 6.25 uM % Lysed cells (1 h LDH) (SJSA-1 cells [5]): 0%
- 25 uM % Lysed cells (1 h LDH) (SJSA-1 cells [5]): 0%
- 50 uM % Lysed cells (1 h LDH) (SJSA-1 cells [5]): 0%

- % Helix 50% TFE compared to 50% TFE parent (CD) [4]: 148.2%
- Molar Ellipticity 50% TFE (222 in 50% TFE) [4]: −21509.7 deg cm2 dmol-1
- Molar Ellipticity Benign (222 in 0% TFE) [4]: −102.6 deg cm2 dmol-1
- % Helix benign compared to 50% TFE parent (CD) [4]: 0.7%
- IC50 (MDM2): 10 to 100 nM
- Ki (MDM2): < 10 nM
- IC50 (MDMX): 100 to 1000 nM
- Ki (MDMX): 10 to 100 nM
Compound: CCCC[C@H](NC(=O)[C@H](C)NC(=O)[C@H](C)NC(=O)[C@]1(C)CCC/C=C/CCCCCC[C@@](C)(NC(=O)[C@H](Cc2ccccc2)NC(=O)[C@@H](NC(=O)[C@H](CC(C)C)NC(C)=O)[C@@H](C)O)C(=O)N[C@@H](C)C(=O)N[C@@H](Cc2ccc(O)cc2)C(=O)N[C@@H](Cc2c[nH]c3ccccc23)C(=O)N[C@@H](C)C(=O)N[C@@H](CCC(N)=O)C(=O)N[C@@H](CC(C)C)C(=O)N1)C(=O)N[C@@H](C)C(N)=O [compound 69]
- caspase 0.3 uM (Caspase 3): 4.34
- caspase 1 uM (Caspase 3): 9.51
- caspase 3 uM (Caspase 3): 16.39
- caspase 10 uM (Caspase 3): 26.59
- caspase 30 uM (Caspase 3): 26.11
- 6.25 uM % Lysed cells (1 h LDH) (SJSA-1 cells [5]): 1%
- 25 uM % Lysed cells (1 h LDH) (SJSA-1 cells [5]): −0.5%
- 50 uM % Lysed cells (1 h LDH) (SJSA-1 cells [5]): 5%
